Experimental data as given in patent publication US7476672B2, “Acetylenic compounds useful in treating inflammatory disorders” (Janssen Pharmaceutica N.V., priority 2002, dated 2009).
Structures can show the parent of a compound that is named as a salt.

Key:
NADPH-oxidase = biological target: T1, NADPH-oxidase (Homo sapiens, UniProt P04839); assay: Oxidase Inhibition Assay (PMA-stimulated superoxide-mediated reduction of Cytochrome c, whole cells); format: cell-based; settings: human neutrophils, PMA 0.5 μM, absorbance at 550 nm
T1 construct: endogenous in cells; host or cells: human neutrophils isolated from buffy coat
T1 sequence (P04839 1-570): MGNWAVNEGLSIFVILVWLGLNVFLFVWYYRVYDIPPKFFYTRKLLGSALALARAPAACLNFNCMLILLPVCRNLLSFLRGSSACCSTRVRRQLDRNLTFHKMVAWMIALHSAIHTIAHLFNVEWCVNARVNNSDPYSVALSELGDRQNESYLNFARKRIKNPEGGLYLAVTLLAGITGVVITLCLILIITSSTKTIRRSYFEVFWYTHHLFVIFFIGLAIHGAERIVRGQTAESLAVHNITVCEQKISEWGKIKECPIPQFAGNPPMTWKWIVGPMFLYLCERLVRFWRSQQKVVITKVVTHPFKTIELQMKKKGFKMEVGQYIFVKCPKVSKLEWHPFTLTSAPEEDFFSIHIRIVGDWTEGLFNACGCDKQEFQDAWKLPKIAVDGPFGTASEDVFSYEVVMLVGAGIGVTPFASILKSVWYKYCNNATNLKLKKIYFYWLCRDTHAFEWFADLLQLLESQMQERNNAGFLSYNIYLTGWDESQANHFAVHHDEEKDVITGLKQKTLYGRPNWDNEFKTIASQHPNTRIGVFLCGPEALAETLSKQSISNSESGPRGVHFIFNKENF
Procedure: Whole cells (human neutrophils) are incubated with a pro-inflammatory agonist phorbol myristate acetate (PMA) in the presence or absence of test compound to measure the superoxide-mediated reduction of Cytochrome c at 550 nm. Inhibition of the oxidase is determined by a decreased absorbance at 550 nm, in response to test compound, relative to the absorbance seen with a vehicle control.
The buffy coat from one unit of blood is split evenly into four 50 mL tubes. To each tube 30 mL 3% Dextran (in 0.9% NaCl) is added and the tubes are inverted to mix. Tubes are allowed to sit undisturbed for 25 minutes. The resulting supernatant is recovered into four fresh tubes and centrifuged for 10 minutes at 600×g, 4° C. The supernatant is discarded and pellets are resuspended in 35 mL 0.9% saline. 10 mL Ficoll-Paque PLUS (Pharmacia Biotech AB) is layered beneath the cell suspension and centrifuged at 600×g for 40 minutes at room temperature. The supernatant is again discarded and tubes are tapped to loosen the resulting pellets. 20 mL 0.2% ice cold saline is added for 30 seconds followed by 20 mL 1.6% ice cold saline to lyse the remaining erythrocytes in the pellets. The pellets are centrifuged for 10 minutes at 600×g, 4° C., and the supernatant is discarded. The neutrophil pellets are resuspended in HBSS-glucose buffer (1 mg/mL), adding 2.5 mL to each tube for a total volume of 10 mL. The cell suspension is then counted on a hemocytometer.
The cell suspension is diluted to a concentration of 5×10^6/mL in HBSS-glucose and treated with 1 μg/mL Cytochalasin B (5 mg/mL DMSO) for 10 minutes at 37° C. in a shaking water bath. Cells are diluted to 6×10^5 cells/mL in 92 μM Cytochrome C for a final concentration of 5×10^4 cells/well.
The NADPH-oxidase assay is run on a Biomek 2000 workstation. The workstation adds 2.5 μL compound per well from source plates plus 12.5 μL per well 4 μM PMA (agonist). This volume is brought up to 100 μL total per well in the assay plates upon the addition of the prepared cells (85 μL). The final concentration of drug is 25 μM and PMA is 0.5 μM under these conditions.
The QC curve is a dose-response curve (from about 31.25 nM to about 4000 nM) for competitive binding against a known oxidase inhibitor such as DPI (diphenylene iodonium chloride). The format used for each compound tested is as follows:
The plates are incubated for 1 hour at 37° C. without CO2. The plates are then incubated at room temperature for 30 minutes and the absorbance is read at 550 nm.

Row | IC50 (NADPH-oxidase) [µM] | melting point [°C] | Compound
1 | 2.35 |  | Cc1cc(C#Cc2ccc(Cl)cc2)ccc1OCCNCc1ccc(CNCCN2CCCC2)cc1 [Compound 14, N^1-[2-[4-[(4-chlorophenyl)ethynyl]-2-methylphenoxy]ethyl]-N^4-[2-(1-pyrrolidinyl)ethyl]-1,4-benzenedimethanamine]
2 | 1.2 |  | CC(C)NCc1ccc(CNCCOc2ccc(C#Cc3ccc(Cl)cc3)cc2)cc1 [Compound 4, N^1-[2-[4-[(4-chlorophenyl)ethynyl]phenoxy]ethyl]-N^4-(1-methylethyl)-1,4-benzenedimethanamine]
3 | 0.7 |  | Cc1cc(C#Cc2ccc(Cl)cc2)ccc1OCC(C)NCc1ccc(CN)cc1 (stereo not drawn) [Compound 1, N-[2-[4-[(4-chlorophenyl)ethynyl]-2-methylphenoxy]-1-methylethyl]-1,4-benzenedimethanamine]
4 | 0.7 |  | CC(COc1ccc(C#Cc2ccc(Cl)cc2)cc1Cl)NCc1ccc(CN)cc1 (stereo not drawn) [Compound 25, N-[2-[2-chloro-4-[(4-chlorophenyl)ethynyl]phenoxy]-1-methylethyl]-1,4-benzenedimethanamine]
5 | 2.07 |  | CCCNCc1ccc(CNCCOc2ccc(C#Cc3ccc(Cl)cc3)cc2)cc1 [Compound 2, N^1-[2-[4-[(4-chlorophenyl)ethynyl]phenoxy]ethyl]-N^4-propyl-1,4-benzenedimethanamine]
6 |  | 261.5 to 264 | CCC(COc1ccc(C#Cc2ccc(Cl)cc2)cc1C)NCc1ccc(CN)cc1 (stereo not drawn) (as salt: HCl) [Compound 23, N-[1-[[4-[(4-chlorophenyl)ethynyl]-2-methylphenoxy]methyl]propyl]-1,4-benzenedimethanamine]
7 | 0.8 |  | CCC(COc1ccc(C#Cc2ccc(Cl)cc2)cc1C)NCc1ccc(CN)cc1 (stereo not drawn) [Compound 23, N-[1-[[4-[(4-chlorophenyl)ethynyl]-2-methylphenoxy]methyl]propyl]-1,4-benzenedimethanamine]
8 | 1.77 |  | Cc1cc(C#Cc2ccc(Cl)cc2)ccc1OCCNCc1ccc(CN)cc1 [Compound 21, N-[2-[4-[(4-chlorophenyl)ethynyl]-2-methylphenoxy]ethyl]-1,4-benzenedimethanamine]
9 | 2.28 |  | Cc1cc(C#Cc2ccc(Cl)cc2)ccc1OCCNCc1ccc(CNCCC(C)C)cc1 [Compound 6, N^1-[2-[4-[(4-chlorophenyl)ethynyl]-2-methylphenoxy]ethyl]-N^4-(3-methylbutyl)-1,4-benzenedimethanamine]

Second part, the compound before the results:

Row | Compound | IC50 (NADPH-oxidase) [µM] | melting point [°C]
10 | Cc1cc(C#Cc2ccc(Cl)cc2)ccc1OCCNCc1ccc(CNCCCN2CCOCC2)cc1 [Compound 15, N^1-[2-[4-[(4-chlorophenyl)ethynyl]-2-methylphenoxy]ethyl]-N^4-[3-(4-morpholinyl)propyl]-1,4-benzenedimethanamine] | 1.61 | 
11 | CC(COc1ccc(C#Cc2ccc(F)cc2)cc1Cl)NCc1ccc(CN)cc1 (stereo not drawn) (as salt: HCl) [Compound 26, N-[2-[2-chloro-4-[(4-fluorophenyl)ethynyl]phenoxy]-1-methylethyl]-1,4-benzenedimethanamine] |  | > 300
12 | CCCCCCNCc1ccc(CNCCOc2ccc(C#Cc3ccc(Cl)cc3)cc2C)cc1 [Compound 12, N^1-[2-[4-[(4-chlorophenyl)ethynyl]-2-methylphenoxy]ethyl]-N^4-hexyl-1,4-benzenedimethanamine] | 11.1 | 
13 | CC(COc1ccc(C#Cc2ccc(Cl)cc2)cc1Cl)NCc1ccc(CN)cc1 (stereo not drawn) (as salt: HCl) [Compound 25, N-[2-[2-chloro-4-[(4-chlorophenyl)ethynyl]phenoxy]-1-methylethyl]-1,4-benzenedimethanamine] |  | > 300
14 | CC(C)CCNCc1ccc(CNCCOc2ccc(C#Cc3ccc(Cl)cc3)cc2)cc1 [Compound 5, N^1-[2-[4-[(4-chlorophenyl)ethynyl]phenoxy]ethyl]-N^4-(3-methylbutyl)-1,4-benzenedimethanamine] | 2.17 | 
15 | Cc1ccc(C#Cc2ccc(OCC(C)NCc3ccc(CN)cc3)c(Cl)c2)cc1 (stereo not drawn) [Compound 24, N-[2-[2-chloro-4-[(4-methylphenyl)ethynyl]phenoxy]-1-methylethyl]-1,4-benzenedimethanamine] | 0.7 | 
16 | CC(COc1ccc(C#Cc2ccccc2)cc1Cl)NCc1ccc(CN)cc1 (stereo not drawn) [Compound 22, N-[2-[2-chloro-4-(phenylethynyl)phenoxy]-1-methylethyl]-1,4-benzenedimethanamine] | 0.85 | 
17 | Cc1cc(C#Cc2ccc(Cl)cc2)ccc1OCCNCc1ccc(CNCCN2CCOCC2)cc1 [Compound 16, N^1-[2-[4-[(4-chlorophenyl)ethynyl]-2-methylphenoxy]ethyl]-N^4-[2-(4-morpholinyl)ethyl]-1,4-benzenedimethanamine] | 2.66 | 
18 | CCCCCCCNCc1ccc(CNCCOc2ccc(C#Cc3ccc(Cl)cc3)cc2C)cc1 [Compound 9, N^1-[2-[4-[(4-chlorophenyl)ethynyl]-2-methylphenoxy]ethyl]-N^4-heptyl-1,4-benzenedimethanamine] | 6.66 | 
19 | Cc1cc(C#Cc2ccc(Cl)cc2)ccc1OCCNCc1ccc(CNCCCOC(=O)C2CCCCN2)cc1 (stereo not drawn) [Compound 18, 3-[[[4-[[[2-[4-[(4-chlorophenyl)ethynyl]-2-methylphenoxy]ethyl]amino]methyl]phenyl]methyl]amino]propyl ester 2-piperidinecarboxylic acid] | 3.01 | 
20 | CC(COc1ccc(C#Cc2ccc(F)cc2)cc1Cl)NCc1ccc(CN)cc1 (stereo not drawn) [Compound 26, N-[2-[2-chloro-4-[(4-fluorophenyl)ethynyl]phenoxy]-1-methylethyl]-1,4-benzenedimethanamine] | 1.05 | 
21 | Cc1ccc(C#Cc2ccc(OCC(C)NCc3ccc(CN)cc3)c(Cl)c2)cc1 (stereo not drawn) (as salt: HCl) [Compound 24, N-[2-[2-chloro-4-[(4-methylphenyl)ethynyl]phenoxy]-1-methylethyl]-1,4-benzenedimethanamine] |  | > 300
22 | Cc1cc(C#Cc2ccc(Cl)cc2)ccc1OCC(C)NCc1ccc(CN)cc1 (stereo not drawn) (as salt: HCl) [Compound 1, N-[2-[4-[(4-chlorophenyl)ethynyl]-2-methylphenoxy]-1-methylethyl]-1,4-benzenedimethanamine] |  | > 300
23 | Cc1cc(C#Cc2ccc(Cl)cc2)ccc1OCCNCc1ccc(CNCc2ccccc2)cc1 [Compound 8, N^1-[2-[4-[(4-chlorophenyl)ethynyl]-2-methylphenoxy]ethyl]-N^4-(phenylmethyl)-1,4-benzenedimethanamine] | 3.24 | 
24 | CCCNCc1ccc(CNCCOc2ccc(C#Cc3ccc(Cl)cc3)cc2C)cc1 [Compound 3, N^1-[2-[4-[(4-chlorophenyl)ethynyl]-2-methylphenoxy]ethyl]-N^4-propyl-1,4-benzenedimethanamine] | 1.38 | 
25 | Cc1cc(C#Cc2ccc(Cl)cc2)ccc1OCCNCc1ccc(CNCCCc2ccccc2)cc1 [Compound 10, N^1-[2-[4-[(4-chlorophenyl)ethynyl]-2-methylphenoxy]ethyl]-N^4-(3-phenylpropyl)-1,4-benzenedimethanamine] | 8.34 | 
26 | Cc1cc(C#Cc2ccc(Cl)cc2)ccc1OCCNCc1ccc(CNC(C)(C)C)cc1 [Compound 19, N^1-[2-[4-[(4-chlorophenyl)ethynyl]-2-methylphenoxy]ethyl]-N^4-(1,1-dimethylethyl)-1,4-benzenedimethanamine] | 3.33 | 
27 | CN(C)CCCNCc1ccc(CNCCOc2ccc(C#Cc3ccc(Cl)cc3)cc2)cc1 [Compound 7, N^1-[2-[4-[(4-chlorophenyl)ethynyl]phenoxy]ethyl]-N^4-[3-(dimethylamino)propyl]-1,4-benzenedimethanamine] | 0.77 | 
